Assays:
Assay in all cases: biochemical
Design in all cases: KINOMEscan competition binding, DNA-tagged kinase against immobilised ligand, qPCR read-out
Conditions in all cases: read-out: Percent Control
AAK1 = AAK1 (Homo sapiens, UniProt Q2M2I8)
ROS1 = ROS1 (Homo sapiens, UniProt P08922)
CSF1R = CSF1R (Homo sapiens, UniProt P07333)
ABL1-nonphosphorylated = target: T1, ABL1-nonphosphorylated (Homo sapiens, UniProt P00519)
T1 construct: nonphosphorylated

TLK2 = TLK2 (Homo sapiens, UniProt Q86UE8)
FLT1 = FLT1 (Homo sapiens, UniProt P17948)
MAPK4 = MAPK4 (Homo sapiens, UniProt P31152)
Chain of MAPK4 (P31152 whole entry): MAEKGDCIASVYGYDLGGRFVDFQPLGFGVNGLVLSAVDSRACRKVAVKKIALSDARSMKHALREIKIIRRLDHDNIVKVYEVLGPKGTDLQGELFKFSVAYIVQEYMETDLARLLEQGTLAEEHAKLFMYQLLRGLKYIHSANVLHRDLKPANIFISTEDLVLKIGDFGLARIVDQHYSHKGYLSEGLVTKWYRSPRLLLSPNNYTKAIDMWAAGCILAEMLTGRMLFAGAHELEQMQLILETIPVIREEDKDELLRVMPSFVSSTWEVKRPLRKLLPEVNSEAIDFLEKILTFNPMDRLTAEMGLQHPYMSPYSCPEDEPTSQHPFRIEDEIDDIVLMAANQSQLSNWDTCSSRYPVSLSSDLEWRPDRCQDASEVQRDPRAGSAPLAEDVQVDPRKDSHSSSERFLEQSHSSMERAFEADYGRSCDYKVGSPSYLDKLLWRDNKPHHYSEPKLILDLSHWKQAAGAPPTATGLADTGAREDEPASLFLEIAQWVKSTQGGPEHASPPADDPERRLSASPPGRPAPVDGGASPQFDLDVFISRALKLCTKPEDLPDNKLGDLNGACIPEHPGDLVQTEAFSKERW

DAPK1 = DAPK1 (Homo sapiens, UniProt P53355)
PIK3CB = PIK3CB (Homo sapiens, UniProt P42338)
DCLK1 = DCLK1 (Homo sapiens, UniProt O15075)
EPHB6 = EPHB6 (Homo sapiens, UniProt O15197)
RAF1 = RAF1 (Homo sapiens, UniProt P04049)
PTK2 = PTK2 (Homo sapiens, UniProt Q05397)
PKMYT1 = PKMYT1 (Homo sapiens, UniProt Q99640)
MAP3K9 = MAP3K9 (Homo sapiens, UniProt P80192)
PRKG1 = PRKG1 (Homo sapiens, UniProt Q13976)
[1] = target: T2, RSK2(Kin.Dom.2-C-terminal) (Homo sapiens, UniProt P51812)
T2 construct: gene RPS6KA3; Kin.Dom.2 C-terminal
T2 sequence (P51812 whole entry): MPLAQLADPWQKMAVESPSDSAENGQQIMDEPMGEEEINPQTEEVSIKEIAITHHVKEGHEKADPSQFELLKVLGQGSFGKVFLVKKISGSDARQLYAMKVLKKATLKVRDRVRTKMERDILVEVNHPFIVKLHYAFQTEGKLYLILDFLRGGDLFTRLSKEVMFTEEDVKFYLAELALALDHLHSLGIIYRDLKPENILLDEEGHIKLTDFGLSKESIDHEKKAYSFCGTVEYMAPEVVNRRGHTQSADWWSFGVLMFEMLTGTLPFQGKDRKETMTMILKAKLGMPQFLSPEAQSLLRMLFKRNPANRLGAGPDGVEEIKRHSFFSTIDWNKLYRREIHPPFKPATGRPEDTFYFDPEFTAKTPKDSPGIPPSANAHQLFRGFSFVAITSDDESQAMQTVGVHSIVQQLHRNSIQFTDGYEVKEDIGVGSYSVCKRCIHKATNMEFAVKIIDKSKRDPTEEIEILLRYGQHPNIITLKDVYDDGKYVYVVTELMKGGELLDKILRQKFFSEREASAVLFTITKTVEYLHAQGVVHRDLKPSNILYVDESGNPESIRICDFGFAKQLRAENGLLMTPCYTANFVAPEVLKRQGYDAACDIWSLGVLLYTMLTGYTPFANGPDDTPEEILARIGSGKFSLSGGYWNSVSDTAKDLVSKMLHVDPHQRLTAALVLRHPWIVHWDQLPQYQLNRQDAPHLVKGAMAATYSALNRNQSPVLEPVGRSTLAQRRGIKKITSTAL

ULK1 = ULK1 (Homo sapiens, UniProt O75385)
Chain of ULK1 (O75385 whole entry): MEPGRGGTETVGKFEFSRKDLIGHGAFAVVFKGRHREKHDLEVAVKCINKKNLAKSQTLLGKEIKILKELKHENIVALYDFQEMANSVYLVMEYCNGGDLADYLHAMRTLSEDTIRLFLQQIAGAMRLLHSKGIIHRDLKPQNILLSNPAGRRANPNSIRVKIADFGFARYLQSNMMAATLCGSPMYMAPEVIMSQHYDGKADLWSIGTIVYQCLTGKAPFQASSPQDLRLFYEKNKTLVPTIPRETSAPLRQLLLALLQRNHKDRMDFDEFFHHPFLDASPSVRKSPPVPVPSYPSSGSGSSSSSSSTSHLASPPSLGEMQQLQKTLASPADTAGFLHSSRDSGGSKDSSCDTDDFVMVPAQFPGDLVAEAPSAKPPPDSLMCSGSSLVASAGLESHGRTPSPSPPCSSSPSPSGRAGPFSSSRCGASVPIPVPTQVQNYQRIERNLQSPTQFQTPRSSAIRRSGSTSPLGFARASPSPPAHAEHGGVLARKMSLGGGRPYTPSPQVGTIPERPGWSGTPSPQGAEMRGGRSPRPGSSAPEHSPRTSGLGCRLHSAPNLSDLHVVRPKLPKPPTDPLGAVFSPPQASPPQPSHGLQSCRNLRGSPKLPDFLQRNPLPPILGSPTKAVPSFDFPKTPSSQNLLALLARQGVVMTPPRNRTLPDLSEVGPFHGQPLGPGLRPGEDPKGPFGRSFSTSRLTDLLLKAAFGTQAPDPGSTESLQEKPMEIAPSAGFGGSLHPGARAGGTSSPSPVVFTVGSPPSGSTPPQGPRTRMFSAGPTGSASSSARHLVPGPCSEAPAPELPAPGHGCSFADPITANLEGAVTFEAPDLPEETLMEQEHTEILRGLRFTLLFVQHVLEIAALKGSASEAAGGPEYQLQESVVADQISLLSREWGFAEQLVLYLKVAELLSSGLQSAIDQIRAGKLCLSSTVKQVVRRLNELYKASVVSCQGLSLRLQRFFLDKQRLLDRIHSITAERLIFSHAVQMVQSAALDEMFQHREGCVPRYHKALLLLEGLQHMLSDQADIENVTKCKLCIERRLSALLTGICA

PLK1 = PLK1 (Homo sapiens, UniProt P53350)
Chain of PLK1 (P53350 whole entry): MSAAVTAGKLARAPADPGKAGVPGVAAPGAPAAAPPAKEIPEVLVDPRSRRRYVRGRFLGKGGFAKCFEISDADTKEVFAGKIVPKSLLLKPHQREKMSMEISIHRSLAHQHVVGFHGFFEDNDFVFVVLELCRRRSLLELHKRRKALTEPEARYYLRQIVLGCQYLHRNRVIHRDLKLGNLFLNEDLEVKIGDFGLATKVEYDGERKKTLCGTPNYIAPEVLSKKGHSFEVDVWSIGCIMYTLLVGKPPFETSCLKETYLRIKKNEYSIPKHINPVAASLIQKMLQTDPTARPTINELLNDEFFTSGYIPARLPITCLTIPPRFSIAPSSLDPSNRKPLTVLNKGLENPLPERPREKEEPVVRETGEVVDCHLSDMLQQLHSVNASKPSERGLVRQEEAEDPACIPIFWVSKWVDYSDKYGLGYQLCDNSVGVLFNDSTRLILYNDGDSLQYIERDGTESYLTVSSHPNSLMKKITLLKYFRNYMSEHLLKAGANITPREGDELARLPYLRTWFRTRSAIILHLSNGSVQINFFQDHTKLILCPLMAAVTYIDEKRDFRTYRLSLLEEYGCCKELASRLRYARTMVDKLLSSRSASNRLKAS

CDK2 = CDK2 (Homo sapiens, UniProt P24941)

Chain of AAK1 (Q2M2I8 whole entry): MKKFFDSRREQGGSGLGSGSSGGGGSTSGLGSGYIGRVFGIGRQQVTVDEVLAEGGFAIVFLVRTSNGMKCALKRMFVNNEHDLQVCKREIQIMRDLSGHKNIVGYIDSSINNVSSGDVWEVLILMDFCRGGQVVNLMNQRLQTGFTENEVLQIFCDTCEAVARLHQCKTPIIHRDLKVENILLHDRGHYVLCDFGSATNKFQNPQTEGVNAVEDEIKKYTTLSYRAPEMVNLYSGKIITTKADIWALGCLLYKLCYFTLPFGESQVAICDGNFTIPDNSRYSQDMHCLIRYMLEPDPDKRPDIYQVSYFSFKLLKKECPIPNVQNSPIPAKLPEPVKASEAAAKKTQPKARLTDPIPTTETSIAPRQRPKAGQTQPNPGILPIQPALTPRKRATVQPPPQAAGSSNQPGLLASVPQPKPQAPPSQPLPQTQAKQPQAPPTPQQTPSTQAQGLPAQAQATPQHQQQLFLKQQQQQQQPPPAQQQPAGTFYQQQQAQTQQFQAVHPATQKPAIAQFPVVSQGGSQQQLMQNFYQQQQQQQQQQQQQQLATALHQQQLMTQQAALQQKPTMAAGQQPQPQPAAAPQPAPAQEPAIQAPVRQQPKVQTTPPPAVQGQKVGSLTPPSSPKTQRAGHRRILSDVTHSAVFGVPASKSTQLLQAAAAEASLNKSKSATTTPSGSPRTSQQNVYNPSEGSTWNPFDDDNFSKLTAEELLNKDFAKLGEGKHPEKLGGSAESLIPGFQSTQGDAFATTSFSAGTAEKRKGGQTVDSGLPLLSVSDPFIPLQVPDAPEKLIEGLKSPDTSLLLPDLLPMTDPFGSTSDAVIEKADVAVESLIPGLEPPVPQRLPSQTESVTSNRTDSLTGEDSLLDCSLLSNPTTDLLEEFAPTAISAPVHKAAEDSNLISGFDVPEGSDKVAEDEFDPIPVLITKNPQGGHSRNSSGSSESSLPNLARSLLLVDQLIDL
T1 sequence (P00519 whole entry): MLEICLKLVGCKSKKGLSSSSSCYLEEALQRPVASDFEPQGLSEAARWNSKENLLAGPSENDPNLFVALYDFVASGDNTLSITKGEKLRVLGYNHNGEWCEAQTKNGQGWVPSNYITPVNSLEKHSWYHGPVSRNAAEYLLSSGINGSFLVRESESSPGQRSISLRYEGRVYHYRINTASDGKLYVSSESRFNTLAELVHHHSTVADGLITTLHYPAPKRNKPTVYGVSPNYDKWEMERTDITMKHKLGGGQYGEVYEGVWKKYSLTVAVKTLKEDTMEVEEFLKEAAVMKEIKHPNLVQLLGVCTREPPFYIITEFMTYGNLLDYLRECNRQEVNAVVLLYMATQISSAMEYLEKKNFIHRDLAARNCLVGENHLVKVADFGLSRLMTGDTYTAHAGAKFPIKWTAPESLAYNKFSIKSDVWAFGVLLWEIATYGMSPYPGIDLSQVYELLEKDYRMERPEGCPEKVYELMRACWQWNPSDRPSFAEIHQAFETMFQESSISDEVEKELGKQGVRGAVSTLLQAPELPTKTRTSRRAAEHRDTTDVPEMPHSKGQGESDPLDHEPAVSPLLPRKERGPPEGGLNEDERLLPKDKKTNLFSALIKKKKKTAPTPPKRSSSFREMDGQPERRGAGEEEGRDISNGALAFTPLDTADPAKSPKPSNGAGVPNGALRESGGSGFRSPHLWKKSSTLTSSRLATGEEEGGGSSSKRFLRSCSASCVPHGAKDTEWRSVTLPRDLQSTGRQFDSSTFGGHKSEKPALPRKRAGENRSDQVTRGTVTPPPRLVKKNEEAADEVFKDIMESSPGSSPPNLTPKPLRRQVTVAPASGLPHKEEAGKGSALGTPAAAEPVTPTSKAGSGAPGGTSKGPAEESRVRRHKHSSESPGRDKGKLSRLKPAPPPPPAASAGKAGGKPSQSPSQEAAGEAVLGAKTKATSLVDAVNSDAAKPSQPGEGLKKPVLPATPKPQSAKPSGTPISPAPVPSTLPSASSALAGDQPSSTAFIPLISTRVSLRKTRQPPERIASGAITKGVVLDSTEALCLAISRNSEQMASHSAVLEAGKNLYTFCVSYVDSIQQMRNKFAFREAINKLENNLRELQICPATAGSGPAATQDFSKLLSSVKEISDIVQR

Oc1ccc(C2=Cc3ccc(O)cc3OC2)cc1 [compound 1, idronoxil]
remaining binding at 10 µM (AAK1): 61% | remaining binding at 10 µM (ROS1): 73% | remaining binding at 10 µM (CSF1R): 26% | remaining binding at 10 µM (ABL1-nonphosphorylated): 32% | remaining binding at 10 µM (TLK2): 86% | remaining binding at 10 µM (FLT1): 100% | remaining binding at 10 µM (MAPK4): 100% | remaining binding at 10 µM (DAPK1): 53% | remaining binding at 10 µM (PIK3CB): 98% | remaining binding at 10 µM (DCLK1): 100% | remaining binding at 10 µM (EPHB6): 53% | remaining binding at 10 µM (RAF1): 69% | remaining binding at 10 µM (PTK2): 100% | remaining binding at 10 µM (PKMYT1): 78% | remaining binding at 10 µM (MAP3K9): 82% | remaining binding at 10 µM (PRKG1): 74% | remaining binding at 10 µM [1]: 95% | remaining binding at 10 µM (ULK1): 89% | remaining binding at 10 µM (PLK1): 77% | remaining binding at 10 µM (CDK2): 92%

Source: PMC10507085, “Pharmacological inhibition of TBK1/IKKε blunts immunopathology in a murine model of SARS-CoV-2 infection” (Nature Communications, 2023)
